pIC50: −log10 of the molar value.
Molecular target: T1, TSHR (Mus musculus, UniProt P47750)
T1 construct: host or cells: mice in vivo (endogenous thyroid TSHR)
Test: not given
Conditions: TSH-releasing hormone (TRH)-treated mice; cited from earlier work

T1 sequence (P47750 22-764): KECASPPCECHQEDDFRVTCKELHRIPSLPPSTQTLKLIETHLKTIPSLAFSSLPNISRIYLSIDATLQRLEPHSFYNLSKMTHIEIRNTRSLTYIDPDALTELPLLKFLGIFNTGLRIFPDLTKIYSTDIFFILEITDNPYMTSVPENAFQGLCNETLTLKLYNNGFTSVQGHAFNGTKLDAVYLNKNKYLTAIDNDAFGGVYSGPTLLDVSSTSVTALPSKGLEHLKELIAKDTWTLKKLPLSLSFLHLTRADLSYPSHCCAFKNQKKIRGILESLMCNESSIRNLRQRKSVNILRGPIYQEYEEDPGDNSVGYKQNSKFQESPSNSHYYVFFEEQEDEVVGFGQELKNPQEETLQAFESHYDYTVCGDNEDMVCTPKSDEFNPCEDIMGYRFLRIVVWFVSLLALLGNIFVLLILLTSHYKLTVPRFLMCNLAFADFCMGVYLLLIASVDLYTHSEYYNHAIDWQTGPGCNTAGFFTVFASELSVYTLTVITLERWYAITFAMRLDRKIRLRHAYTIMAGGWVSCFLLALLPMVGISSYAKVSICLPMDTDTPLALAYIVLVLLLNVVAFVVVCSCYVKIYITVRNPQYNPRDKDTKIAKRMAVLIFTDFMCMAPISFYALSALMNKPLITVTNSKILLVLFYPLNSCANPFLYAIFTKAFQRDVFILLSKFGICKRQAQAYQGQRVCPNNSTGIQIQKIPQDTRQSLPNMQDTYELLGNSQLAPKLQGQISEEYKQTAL

SMILES	blood T4 concentration
COc1ccc(C2Nc3ccccc3C(=O)N2Cc2ccco2)cc1COc1c(C)cc(NC(C)=O)cc1C (stereo not shown) [NCGC00242364]	blood T4 concentration lowering effect

Same assay, conditions: thyroid stimulating antibody M22-treated mice; cited from earlier work

SMILES	blood T4 concentration
COc1ccc(C2Nc3ccccc3C(=O)N2Cc2ccco2)cc1COc1c(C)cc(NC(C)=O)cc1C (stereo not shown) [NCGC00242364]	blood T4 concentration lowering effect

Molecular target: T2, human TSHR (Homo sapiens, UniProt P16473)
T2 construct: expressed in transfected cells
T2 sequence (P16473 21-764): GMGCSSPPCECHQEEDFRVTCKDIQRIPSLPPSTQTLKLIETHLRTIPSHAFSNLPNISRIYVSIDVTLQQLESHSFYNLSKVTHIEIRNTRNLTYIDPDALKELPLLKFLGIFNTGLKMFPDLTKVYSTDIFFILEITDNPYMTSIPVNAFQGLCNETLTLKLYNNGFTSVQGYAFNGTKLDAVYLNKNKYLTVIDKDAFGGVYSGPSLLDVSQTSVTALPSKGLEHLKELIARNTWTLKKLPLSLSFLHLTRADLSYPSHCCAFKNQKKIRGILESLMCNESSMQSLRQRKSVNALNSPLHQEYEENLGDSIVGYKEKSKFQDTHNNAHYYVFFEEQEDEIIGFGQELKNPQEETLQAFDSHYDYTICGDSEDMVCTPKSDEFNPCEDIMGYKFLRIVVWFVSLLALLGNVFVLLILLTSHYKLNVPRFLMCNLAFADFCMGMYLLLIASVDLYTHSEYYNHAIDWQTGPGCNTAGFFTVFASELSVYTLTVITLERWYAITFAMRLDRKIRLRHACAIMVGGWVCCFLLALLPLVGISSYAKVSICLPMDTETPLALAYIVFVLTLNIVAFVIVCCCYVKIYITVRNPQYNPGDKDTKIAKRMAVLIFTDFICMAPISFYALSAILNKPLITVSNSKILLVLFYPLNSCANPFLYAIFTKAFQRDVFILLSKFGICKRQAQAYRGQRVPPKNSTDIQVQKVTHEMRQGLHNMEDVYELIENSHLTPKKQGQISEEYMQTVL
Test: Antagonist activity using TSH-induced cAMP generation in human TSHR-stably expressing CHO cells
Type: cell-based
Conditions: human TSH 50 ng/mL
Procedure: Measurement of antagonist activity using TSH-induced cAMP generation in human TSHR-stably expressing CHO cells as an indicator
The gene sequence (reference number: NM_000369.2) of a human TSHR was inserted into multiple cloning sites of pcDNA3.1 (+). Prepared plasmid vectors were introduced into CHO cells using a lipofection method, and human TSHR-stably expressing CHO cells were established. Obtained cells were seeded in a 96-well poly-D-lysine-coated plate at 5 × 10^4 cells/well and cultured in an F12 culture medium containing 10%FBS, 400 µg/mL of G418, 50 U/mL of penicillin, and 50 µg/mL of streptomycin under conditions of 37°C and 5% CO2 for one day. After the culture medium was removed, the cells were washed twice with 100 µL of an assay buffer solution (Hanks' Balanced Salt Solution containing 20 mM HEPES and 1 mM IBMX) per well. 30 µL of a test compound-containing assay buffer solution was added to the well and incubated at room temperature for 15 minutes. Next, 30 µL of an assay buffer solution containing human TSH (final concentration: 50 ng/mL, R&D Systems, Inc.) was added thereto and incubated at 37°C for one hour. A supernatant was removed, a Lysis and Detection Buffer 2(Cisbio) was added thereto, and the mixture was incubated at room temperature for one hour to prepare a cell lysate. According to the instruction manual of a cAMP Gs HiRange kit (Cisbio), the cell lysate, d2-labeled cAMP, and anti-cAMP Europium Cryptate labeled antibodies (Cisbio) were reacted together in a 384-well white microplate. Next, fluorescence intensity ratios (measurement wavelengths: 665 nm/620 nm) were measured using a multi-plate reader (PHERAstar FSX, BMG LABTECH, Japan). The fluorescence intensity ratio of each sample was converted to a cAMP content using a standard curve. The cAMP content was converted as a percentage of the control value to calculate a cAMP generation rate. The cAMP generation rates were plotted against the test compound concentrations using Prism (Graph Pad Software Inc.) to calculate IC50 values. The IC50's of the individual test compounds are shown in the above tables. In the tables, IC50 < 0.3 µM was denoted as A, and 0.3 µM ≤ IC50 < 30 µM was denoted as B. Cases where the IC50 values were not calculated for test compounds from which activity was recognized are denoted as C.

SMILES	pIC50
N#Cc1ccccc1Cc1c(-c2cccnc2CNC(N)=O)ccc(NC(=O)OC2CC3CCC2CC3)c1F (stereo not shown) [Example A-38, Bicyclo[2.2.2]octan-2-yl (3-(2-cyanobenzyl)-2-fluoro-4-(2-(ureidomethyl)pyridin-3-yl)phenyl)carbamate]	4.52 to 6.52
Cc1cnc(CNC(N)=O)c(-c2ccc(NC(=O)OC(C)(C)C)c(F)c2Cc2ccccc2F)c1 [Example A-10, tert-Butyl (2-fluoro-3-(2-fluorobenzyl)-4-(5-methyl-2-(ureidomethyl)pyridin-3-yl)phenyl)carbamate]	4.52 to 6.52
COC[C@H](C)OC(=O)Nc1ccc(-c2cccnc2CNC(N)=O)c(Cc2ccccc2F)c1F [Example A-25, (S)-1-Methoxypropan-2-yl (2-fluoro-3-(2-fluorobenzyl)-4-(2-(ureidomethyl)pyridin-3-yl)phenyl)carbamate]	4.52 to 6.52
C[C@H](OC(=O)Nc1ccc(-c2ccnnc2CNC(N)=O)c(Cc2ccccc2F)c1F)C(F)(F)F [Example C-2, (S)-1,1,1-Trifluoropropan-2-yl (2-fluoro-3-(2-fluorobenzyl)-4-(3-(ureidomethyl)pyridazin-4-yl)phenyl)carbamate]	> 6.52
C[C@H](OC(=O)Nc1ccc(-c2cccnc2CNC(N)=O)c(Cc2ccccc2F)c1F)C(F)(F)F [Example A-23]	> 6.52
NC(=O)NCc1ncccc1-c1ccc(NC(=O)OC2CC(F)(F)C2)c(F)c1Cc1ccccc1F [Example A-6]	> 6.52
CC(C)(C)OC(=O)Nc1ccc(-c2ccnnc2CNC(N)=O)c(Oc2ccccc2F)c1F [Example D-1, tert-Butyl (2-fluoro-3-(2-fluorophenoxy)-4-(3-(ureidomethyl)pyridazin-4-yl)phenyl)carbamate]	4.52 to 6.52
C[C@@H](OC(=O)Nc1ccc(-c2cccnc2CNC(N)=O)c(Cc2ccccc2F)c1F)C(F)(F)F [Example A-24]	> 6.52
NC(=O)NCc1ncccc1-c1ccc(NC(=O)OCC2CC2(F)F)c(F)c1Cc1ccccc1F (stereo not shown) [Example A-33]	> 6.52
C[C@H](OC(=O)Nc1ccc(-c2ccnnc2CCC(N)=O)c(Cc2ccccc2F)c1F)C(F)(F)F [Example C-5, (S)-1,1,1-Trifluoropropan-2-yl (4-(3-(3-amino-3-oxopropyl)pyridazin-4-yl)-2-fluoro-3-(2-fluorobenzyl)phenyl)carbamate]	> 6.52
NC(=O)NCc1ncccc1-c1ccc(NC(=O)OCC2(C(F)F)CC2)c(F)c1Cc1ccccc1F [Example A-34]	> 6.52
CC(C)C(=O)Nc1ccc(-c2cccnc2CNC(N)=O)c(Cc2ccccc2F)c1F [Example G-2, N-(2-Fluoro-3-(2-fluorobenzyl)-4-(2-(ureidomethyl)pyridin-3-yl)phenyl)isobutylamide]	4.52 to 6.52

Now from value to molecule:

pIC50	SMILES
> 6.52	C[C@@H](OC(=O)Nc1ccc(-c2cccnc2CCC(N)=O)c(Cc2ncccc2F)c1F)C1CC1 [Example F-3, (R)-1-Cyclopropylethyl (4-(2-(3-amino-3-oxopropyl)pyridin-3-yl)-2-fluoro-3-((3-fluoropyridin-2-yl)methyl)phenyl)carbamate]
4.52 to 6.52	CC(C)(C)OC(=O)Nc1ccc(-c2nccnc2CCC(N)=O)c(Cc2ccccc2)c1F [Example H-1, tert-Butyl (4-(3-(3-amino-3-oxopropyl)pyrazin-2-yl)-3-benzyl-2-fluorophenyl)carbamate]
< 4.52	C[C@H]1CN(Cc2c(-c3cccnc3CNC(N)=O)ccc(NC(=O)OC(C)(C)C)c2F)CCO1 [Example F-5, tert-Butyl (S)-(2-fluoro-3-((2-methylmorpholino)methyl)-4-(2-(ureidomethyl)pyridin-3-yl)phenyl)carbamate]
4.52 to 6.52	NC(=O)CCc1ncccc1-c1ccc(NC(=O)OC2CC(F)(F)C2)c(F)c1C(=O)c1ccccc1F [Example E-6]
> 6.52	NC(=O)NCc1ncccc1-c1ccc(NC(=O)NC2CCCC2)c(F)c1Cc1ccccc1F [Example G-8, 1-Cyclopentyl-3-(2-fluoro-3-(2-fluorobenzyl)-4-(2-(ureidomethyl)pyridin-3-yl)phenyl)urea]
> 6.52	NC(=O)NCc1ncccc1-c1ccc(NC(=O)N2CC3(CCC3)C2)c(F)c1Cc1ccccc1F [Example G-7, N-(2-Fluoro-3-(2-fluorobenzyl)-4-(2-(ureidomethyl)pyridin-3-yl)phenyl)-2-azaspiro[3.3]heptane-2-carboxamide]
> 6.52	CC(C)(C)OC(=O)Nc1ccc(-c2cccnc2CCC(N)=O)c(C(=O)c2ccccc2F)c1F [Example E-3, tert-Butyl (4-(2-(3-amino-3-oxopropyl)pyridin-3-yl)-2-fluoro-3-(2-fluorobenzoyl)phenyl)carbamate]
4.52 to 6.52	CC(C)(C)OC(=O)Nc1ccc(-c2cccnc2CNC(N)=O)c(CC2CC2)c1F [Example F-9, tert-Butyl (3-(cyclopropylmethyl)-2-fluoro-4-(2-(ureidomethyl)pyridin-3-yl)phenyl)carbamate]

Source: patent EP4818158A1, “BIARYL COMPOUND” (Kissei Pharmaceutical Co., Ltd., priority 2023, dated 2025)
